Like-named read-outs stand apart in the source and are kept apart here.

Assay [1] concerns C. elegans. The assay is described as follows: Aldicarb sensitivity (paralysis) of C. elegans. Type of assay: in vivo. An excerpt: (§1) Based on studies of other known mutants in C. elegans, hypersensitivity to aldicarb may indicate an increase in synaptic transmission of acetylcholine compared with wild-type animals.
The test system of assay [2] is C. elegans. An excerpt: The F2 population was screened to identify animals that were homozygous for recessive mutations or heterozygous for dominant mutations that alter sensitivity to the effects of ethanol on locomotion. Wild-type C. elegans normally move with a sinusoid pattern of locomotion, but when exposed to high concentrations of ethanol, they display extreme, reversible (after the removal of ethanol) uncoordination and paralysis. Animals that are resistant to the effects of ethanol display the sinusoid pattern of locomotion even in the presence of high concentrations of ethanol. To identify the mutants, animals of the F2 generation were washed from their plates into 1.5 ml tubes, rinsed free of bacteria and incubated in a solution of 400 mM ethanol for 30-50 min. The worms were then transferred to the center of 100 mm petri plates that held media containing 400 mM ethanol and a circle of E. coli (OP50) bacteria on the periphery of the media. […] Animals that moved to the bacteria quickly and with a wild-type pattern of locomotion were identified as ethanol-resistant candidates.
The slo-1 gene is expressed in most, if not all neurons, and in body wall muscle but not in pharyngeal muscle. […] BK4.1 has the slo-1 cdNA fused with the promoter from the C. elegans body muscle myosin (myo-3) gene, which is expressed exclusively in body muscle. We transformed animals homozygous for a known null mutation of slo-1(js118) with each of these DNA constructs separately where the concentration of the BK3.1 or BK4.1 constructs was 20 ng/μ1 in the injection solution. So that we could identify transformed progeny of the injected animals we coinjected a DNA construct that expresses the green fluorescent protein (GFP) in neurons with BK3.1 and a construct that expresses GFP in body muscle with BK4.1. In this way we could examine the progeny of the injected animals under a UV microscope and any animals showing GFP fluorescence have been transformed with the injected DNA. If transformed animals are picked to individual plates and their progeny examined for the presence of GFP, only the animals that are germ-line transformants will have progeny expressing GFP.
(§2) To rule out the possibility of hyperactivity contributing to the resistance seen in slo-1, we compared the level of resistance caused by mutations in slo-1 with the resistance induced by mutations in other regulators of neuron activity including loss-of-function mutations in dgk-1 and goa-1 and a gain-of-function mutation in egl-30. Each of these mutants appears phenotypically hyperactive with increased amplitude of body bends and hyperactive egg laying. […] When SLO-1 is absent the ethanol […] in the nervous system and its effects are greatly minimized.

Assay [3] concerns C. elegans.
Source text: These mutants were examined for the effect of ethanol on two behaviors other than locomotion: egg laying and pharyngeal pumping. […] Unlike wild-type worms, the egg-laying behavior of BZ6, BZ7 and BZ73 worms was unaffected by high doses of ethanol.
as §2
This is another data set of the same source.

Assay [4] relates to C. elegans.
Source text: as §1
This is another data set of the same source.

The target of the next assay is BK channels (Homo sapiens, UniProt Q12791). The following applies: cited from earlier work.
BK channels, sequence (Q12791 whole entry): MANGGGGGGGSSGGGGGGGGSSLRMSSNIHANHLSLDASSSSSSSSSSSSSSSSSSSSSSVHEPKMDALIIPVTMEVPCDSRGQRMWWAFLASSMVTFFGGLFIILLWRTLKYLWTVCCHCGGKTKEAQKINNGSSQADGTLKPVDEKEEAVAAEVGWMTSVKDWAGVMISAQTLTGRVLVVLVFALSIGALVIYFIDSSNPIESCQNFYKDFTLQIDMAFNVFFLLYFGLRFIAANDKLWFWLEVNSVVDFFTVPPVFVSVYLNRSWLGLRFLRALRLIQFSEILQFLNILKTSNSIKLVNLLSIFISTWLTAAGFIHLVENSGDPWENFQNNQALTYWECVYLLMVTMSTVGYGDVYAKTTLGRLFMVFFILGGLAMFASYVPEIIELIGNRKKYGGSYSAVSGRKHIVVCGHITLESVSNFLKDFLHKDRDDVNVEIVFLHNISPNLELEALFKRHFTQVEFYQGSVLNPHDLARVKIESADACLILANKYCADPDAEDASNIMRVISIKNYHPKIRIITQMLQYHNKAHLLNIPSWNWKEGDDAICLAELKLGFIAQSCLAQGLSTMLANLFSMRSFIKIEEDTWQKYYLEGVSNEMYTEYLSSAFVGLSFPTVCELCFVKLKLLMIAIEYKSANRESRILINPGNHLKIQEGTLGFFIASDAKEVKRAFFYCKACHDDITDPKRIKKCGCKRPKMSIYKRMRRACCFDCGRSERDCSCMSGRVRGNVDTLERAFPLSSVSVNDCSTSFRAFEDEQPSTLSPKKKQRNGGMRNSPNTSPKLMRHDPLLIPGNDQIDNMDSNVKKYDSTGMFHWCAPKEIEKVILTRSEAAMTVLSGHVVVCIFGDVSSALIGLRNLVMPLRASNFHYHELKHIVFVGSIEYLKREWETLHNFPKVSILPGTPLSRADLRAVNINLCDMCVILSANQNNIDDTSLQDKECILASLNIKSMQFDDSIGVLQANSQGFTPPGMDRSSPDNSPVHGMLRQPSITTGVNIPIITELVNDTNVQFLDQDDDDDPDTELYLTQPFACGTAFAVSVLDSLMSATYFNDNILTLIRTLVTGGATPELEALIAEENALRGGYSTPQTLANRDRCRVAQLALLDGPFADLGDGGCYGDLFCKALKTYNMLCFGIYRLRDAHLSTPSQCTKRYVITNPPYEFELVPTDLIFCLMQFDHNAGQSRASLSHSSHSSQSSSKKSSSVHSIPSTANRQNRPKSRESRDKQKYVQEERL

On to `CNC(=O)O/N=C/C(C)(C)SC` [aldicarb], for which the “concentrations of aldicarb at which paralysis is displayed” value with C. elegans [1] (ethanol-resistant mutants (BZ6, BZ7, BZ8, BZ73)) fell in the range of 0.1 to 0.25 mM. Besides, the effect of aldicarb entry with C. elegans [1] (wild-type animals, 0.1-0.25 mM) is recorded as “only mildly affect”.

Turning to `CCO` [ethanol], the decrease in speed with C. elegans [2] (dgk-1(sy428)) is 40%; with C. elegans [2] (egl-30(js126gf)), 40%; in the assay with C. elegans [2] (slo-1(js118) animals carrying a BK3.1 transgene (SLO-1 only in neurons)) it was 70%; with C. elegans [2] (slo-1(js118) animals carrying a BK4.1 transgene (SLO-1 only in body muscle)), “little or no decrease in speed”; in the assay with C. elegans [2] (slo-1(js118) animals, intoxicating doses of ethanol), “no decrease in speed”; with C. elegans [2] (three slo-1 mutations js118, eg6 and eg73, ethanol dose giving 60% decrease in wild-type), “no decrease in speed”. This molecule displayed a decrease in speed in the assay with C. elegans [2] (wild-type animals, intoxicating doses of ethanol) of 60%. In addition, the effect on locomotion result with C. elegans [2] (wild-type animals, 400 mM ethanol) is “severe uncoordination and lethargy”. For the same molecule, the effect on egg-laying entry in the assay on C. elegans [3] (BZ6, BZ7 and BZ73 worms, high doses of ethanol) is given as “unaffected”; with C. elegans [3] (BZ6, BZ7 and BZ73 worms, low doses (e.g. 50-100 mM exogenous concentration)), “lay more eggs than wild-type worms”; in the assay with C. elegans [3] (BZ8, high doses of ethanol), “did not display this ethanol-resistance”; in the assay on C. elegans [3] (wild-type C. elegans, high doses (e.g. 400 mM exogenous concentration)), “almost completely suppress egg-laying”. For the same molecule, the “decrease in egg laying” value in the assay on C. elegans [3] (egl-30(js126)) is recorded as 72%; in the assay with C. elegans [3] (goa-1(n1134)), 80%; in the assay on C. elegans [3] (slo-1(eg24)), 12%; with C. elegans [3] (wild-type strain), 96%. In the assay on C. elegans [3] (slo-1(eg142)), the “decrease in egg laying rate” value is “no decrease in egg laying rate”.

With `c1ccc([C@H]2CN3CCSC3=N2)cc1` [levamisole], the response to levamisole result with C. elegans [4] (BZ6, BZ7 and BZ73, 60-100 μM) is given as “wild-type response”; with C. elegans [4] (BZ8), “hypersensitive”.

In the case of “Iberiotoxin (QFTDVDCSVSKECWSVCKDLFGVDRGKCMGKKCRCYQ; UniProt P24663 1-37, looked up)”, the “effective concentration as blocker of BK channels” value with BK channels was “about 10 nM”.

The values above are taken from patent US20030211547A1 (priority 2002, published 2003).
